The source of these data is patent publication US10501489B2, “C17-alkanediyl and alkenediyl derivatives of oleanolic acid and methods of use thereof” (REATA PHARMACEUTICALS, INC., priority 2012, dated 2019).

As usually defined, the IC50 is the concentration at which inhibition is half-maximal.

The assay relates to RAW264.7 mouse macrophages. Kind of assay: Suppression of IFNγ-induced NO production (nitric oxide production and cell viability assay). Type of assay: cell-based. The note with it: RAW264.7 cells, drug pre-treatment 2 hours, then recombinant mouse IFNγ 24 hours; Griess reagent; normalized to cell viability (WST-1). The protocol: Assay results for the suppression of IFNγ-induced NO production are shown for several of the compounds of the present invention in Table 1 below. […] Details regarding this assay are provided in the Examples section below. Nitric Oxide Production and Cell Viability Assay. […] On the next day, cells were pre-treated with DMSO or drug (O-200 nM dose range) for 2 hours, and then treated with recombinant mouse IFNγ (R&D Systems) for 24 hours. Nitric Oxide concentration in media was determined using the Griess reagent system (Promega). Cell viability was determined using WST-1 reagent (Roche). IC50 values were determined based on the suppression of IFNγ induced Nitric Oxide production normalized to cell viability.
(In general: The Griess reaction detects nitrite, a stable product of nitric oxide.)
Take `CC[C@]12CCC(C)(C)C[C@H]1[C@H]1C(=O)C=C3[C@@]4(C)C=C(C#N)C(=O)C(C)(C)[C@@H]4CC[C@@]3(C)[C@]1(C)CC2` [TX63403]: the IC50 is 8.6 nM.
With `CC1(C)CC[C@]2(CCO)CC[C@]3(C)[C@H](C(=O)C=C4[C@@]5(C)C=C(C#N)C(=O)C(C)(C)[C@@H]5CC[C@]43C)[C@@H]2C1` [TX63608], the IC50 came out at 1.1 nM.
Next, `COCC[C@]12CCC(C)(C)C[C@H]1[C@H]1C(=O)C=C3[C@@]4(C)C=C(C#N)C(=O)C(C)(C)[C@@H]4CC[C@@]3(C)[C@]1(C)CC2` [TX63609]: 2.9 nM; `CC(=O)OCC[C@]12CCC(C)(C)C[C@H]1[C@H]1C(=O)C=C3[C@@]4(C)C=C(C#N)C(=O)C(C)(C)[C@@H]4CC[C@@]3(C)[C@]1(C)CC2` [TX63610]: 2.2 nM.
Next, `COC(=O)CC[C@]12CCC(C)(C)C[C@H]1[C@H]1C(=O)C=C3[C@@]4(C)C=C(C#N)C(=O)C(C)(C)[C@@H]4CC[C@@]3(C)[C@]1(C)CC2` [TX63742]: 2 nM; `COC(=O)/C=C/[C@]12CCC(C)(C)C[C@H]1[C@H]1C(=O)C=C3[C@@]4(C)C=C(C#N)C(=O)C(C)(C)[C@@H]4CC[C@@]3(C)[C@]1(C)CC2` [TX63743]: 3.2 nM.
Next, `CC1(C)CC[C@]2(CCCO)CC[C@]3(C)[C@H](C(=O)C=C4[C@@]5(C)C=C(C#N)C(=O)C(C)(C)[C@@H]5CC[C@]43C)[C@@H]2C1` [TX63744]: 1.1 nM; `CC1(C)CC[C@]2(CCC(=O)O)CC[C@]3(C)[C@H](C(=O)C=C4[C@@]5(C)C=C(C#N)C(=O)C(C)(C)[C@@H]5CC[C@]43C)[C@@H]2C1` [TX63762]: 1.2 nM.
Take `CC1(C)CC[C@]2(CCC(=O)N3CCOCC3)CC[C@]3(C)[C@H](C(=O)C=C4[C@@]5(C)C=C(C#N)C(=O)C(C)(C)[C@@H]5CC[C@]43C)[C@@H]2C1` [TX63763]: the half-maximal inhibitory concentration (IC50) was 0.4 nM.
With `CC1(C)CC[C@]2(CCC(=O)NCC(F)(F)F)CC[C@]3(C)[C@H](C(=O)C=C4[C@@]5(C)C=C(C#N)C(=O)C(C)(C)[C@@H]5CC[C@]43C)[C@@H]2C1` [TX63764], the 50% inhibitory concentration (IC50) was determined as 0.7 nM.
Next, `CCNC(=O)CC[C@]12CCC(C)(C)C[C@H]1[C@H]1C(=O)C=C3[C@@]4(C)C=C(C#N)C(=O)C(C)(C)[C@@H]4CC[C@@]3(C)[C@]1(C)CC2` [TX63768]: 0.3 nM.
Next, `CNC(=O)CC[C@]12CCC(C)(C)C[C@H]1[C@H]1C(=O)C=C3[C@@]4(C)C=C(C#N)C(=O)C(C)(C)[C@@H]4CC[C@@]3(C)[C@]1(C)CC2` [TX63770]: 0.2 nM; `CC1(C)CC[C@]2(COC(=O)n3ccnc3)CC[C@]3(C)[C@H](C(=O)C=C4[C@@]5(C)C=C(C#N)C(=O)C(C)(C)[C@@H]5CC[C@]43C)[C@@H]2C1` [TX63868]: 0.7 nM.
Turning to `CC1(C)CC[C@]2(COC(=O)N3CCOCC3)CC[C@]3(C)[C@H](C(=O)C=C4[C@@]5(C)C=C(C#N)C(=O)C(C)(C)[C@@H]5CC[C@]43C)[C@@H]2C1` [TX63926], the IC50 was 0.7 nM.
As for `CC1(C)CC[C@]2(COC(=O)N3CCCC3)CC[C@]3(C)[C@H](C(=O)C=C4[C@@]5(C)C=C(C#N)C(=O)C(C)(C)[C@@H]5CC[C@]43C)[C@@H]2C1` [TX63927], the half-maximal inhibitory concentration (IC50) amounted to 1.3 nM.
As to `CCNC(=O)OC[C@]12CCC(C)(C)C[C@H]1[C@H]1C(=O)C=C3[C@@]4(C)C=C(C#N)C(=O)C(C)(C)[C@@H]4CC[C@@]3(C)[C@]1(C)CC2` [TX63930], the IC50 amounted to 0.9 nM.
Next, `CC1(C)CC[C@]2(CCC(=O)N3CCCC3)CC[C@]3(C)[C@H](C(=O)C=C4[C@@]5(C)C=C(C#N)C(=O)C(C)(C)[C@@H]5CC[C@]43C)[C@@H]2C1` [TX63949]: 0.6 nM.
On to `CC1(C)CC[C@]2(CCC(=O)N3CCC3)CC[C@]3(C)[C@H](C(=O)C=C4[C@@]5(C)C=C(C#N)C(=O)C(C)(C)[C@@H]5CC[C@]43C)[C@@H]2C1` [TX63950], for which the IC50 is 0.4 nM.
Next, `CCNC(=O)OCC[C@]12CCC(C)(C)C[C@H]1[C@H]1C(=O)C=C3[C@@]4(C)C=C(C#N)C(=O)C(C)(C)[C@@H]4CC[C@@]3(C)[C@]1(C)CC2` [TX63981]: 3 nM.
For `CCNC(=O)OCCC[C@]12CCC(C)(C)C[C@H]1[C@H]1C(=O)C=C3[C@@]4(C)C=C(C#N)C(=O)C(C)(C)[C@@H]4CC[C@@]3(C)[C@]1(C)CC2` [TX63983], the IC50 was 5.4 nM.
With `CCOC(=O)CC[C@]12CCC(C)(C)C[C@H]1[C@H]1C(=O)C=C3[C@@]4(C)C=C(C#N)C(=O)C(C)(C)[C@@H]4CC[C@@]3(C)[C@]1(C)CC2` [TX64042], the IC50 worked out at 10 nM.
The figure for `CC(C)OC(=O)CC[C@]12CCC(C)(C)C[C@H]1[C@H]1C(=O)C=C3[C@@]4(C)C=C(C#N)C(=O)C(C)(C)[C@@H]4CC[C@@]3(C)[C@]1(C)CC2` [TX64043] is 21 nM.
Next, `CC1(C)CC[C@]2(CCC(=O)NC3COC3)CC[C@]3(C)[C@H](C(=O)C=C4[C@@]5(C)C=C(C#N)C(=O)C(C)(C)[C@@H]5CC[C@]43C)[C@@H]2C1` [TX64044]: 1.3 nM.
Next, `CC(=O)NNC(=O)CC[C@]12CCC(C)(C)C[C@H]1[C@H]1C(=O)C=C3[C@@]4(C)C=C(C#N)C(=O)C(C)(C)[C@@H]4CC[C@@]3(C)[C@]1(C)CC2` [TX64045]: 5.6 nM; `CC1(C)CC[C@]2(CCC(=O)Oc3ccccc3)CC[C@]3(C)[C@H](C(=O)C=C4[C@@]5(C)C=C(C#N)C(=O)C(C)(C)[C@@H]5CC[C@]43C)[C@@H]2C1` [TX64046]: 8.5 nM; `CC1(C)CC[C@]2(CCC(=O)N3CC[C@H](O)C3)CC[C@]3(C)[C@H](C(=O)C=C4[C@@]5(C)C=C(C#N)C(=O)C(C)(C)[C@@H]5CC[C@]43C)[C@@H]2C1` [TX64047]: 3.3 nM.
Turning to `CC1(C)CC[C@]2(CCC(=O)N3CCC(O)CC3)CC[C@]3(C)[C@H](C(=O)C=C4[C@@]5(C)C=C(C#N)C(=O)C(C)(C)[C@@H]5CC[C@]43C)[C@@H]2C1` [TX64048], the IC50 stood at 1.2 nM.
The figure for `CC1(C)CC[C@]2(CCC(=O)N3CCC(F)(F)C3)CC[C@]3(C)[C@H](C(=O)C=C4[C@@]5(C)C=C(C#N)C(=O)C(C)(C)[C@@H]5CC[C@]43C)[C@@H]2C1` [TX64049] is 2 nM; for `COC(=O)CNC(=O)CC[C@]12CCC(C)(C)C[C@H]1[C@H]1C(=O)C=C3[C@@]4(C)C=C(C#N)C(=O)C(C)(C)[C@@H]4CC[C@@]3(C)[C@]1(C)CC2` [TX64052] it is 2 nM; for `CC1(C)CC[C@]2(CCC(=O)OC3CCN(C(=O)OC(C)(C)C)CC3)CC[C@]3(C)[C@H](C(=O)C=C4[C@@]5(C)C=C(C#N)C(=O)C(C)(C)[C@@H]5CC[C@]43C)[C@@H]2C1` [TX64053] it is 37 nM.
Consider `CC1(C)CC[C@]2(CCC(=O)NCC(=O)O)CC[C@]3(C)[C@H](C(=O)C=C4[C@@]5(C)C=C(C#N)C(=O)C(C)(C)[C@@H]5CC[C@]43C)[C@@H]2C1` [TX64054], for which the IC50 was 97 nM.
Turning to `CC1(C)CC[C@]2(CCC(=O)OC3CCNCC3)CC[C@]3(C)[C@H](C(=O)C=C4[C@@]5(C)C=C(C#N)C(=O)C(C)(C)[C@@H]5CC[C@]43C)[C@@H]2C1` [TX64055], the IC50 is 1.7 nM.
The figure for `CONC(=O)CC[C@]12CCC(C)(C)C[C@H]1[C@H]1C(=O)C=C3[C@@]4(C)C=C(C#N)C(=O)C(C)(C)[C@@H]4CC[C@@]3(C)[C@]1(C)CC2` [TX64056] is 0.3 nM.
Regarding `CC1(C)CC[C@]2(CCC(=O)NC3CCCCC3)CC[C@]3(C)[C@H](C(=O)C=C4[C@@]5(C)C=C(C#N)C(=O)C(C)(C)[C@@H]5CC[C@]43C)[C@@H]2C1` [TX64057], the IC50 worked out at 0.8 nM.
Regarding `CC1(C)CC[C@]2(CCC(=O)OC3CCCCC3)CC[C@]3(C)[C@H](C(=O)C=C4[C@@]5(C)C=C(C#N)C(=O)C(C)(C)[C@@H]5CC[C@]43C)[C@@H]2C1` [TX64058], the IC50 came to 29 nM.
On to `CC1(C)CC[C@]2(CCC(=O)Nc3ccccc3)CC[C@]3(C)[C@H](C(=O)C=C4[C@@]5(C)C=C(C#N)C(=O)C(C)(C)[C@@H]5CC[C@]43C)[C@@H]2C1` [TX64059], for which the half-inhibitory concentration (IC50) came to 1.4 nM.
The figure for `CN(C)C(=O)CC[C@]12CCC(C)(C)C[C@H]1[C@H]1C(=O)C=C3[C@@]4(C)C=C(C#N)C(=O)C(C)(C)[C@@H]4CC[C@@]3(C)[C@]1(C)CC2` [TX64060] is 0.4 nM; for `CC(C)NC(=O)CC[C@]12CCC(C)(C)C[C@H]1[C@H]1C(=O)C=C3[C@@]4(C)C=C(C#N)C(=O)C(C)(C)[C@@H]4CC[C@@]3(C)[C@]1(C)CC2` [TX64064] it is 0.4 nM.
On to `CC1(C)CC[C@]2(CCC(=O)NC(C)(C)C)CC[C@]3(C)[C@H](C(=O)C=C4[C@@]5(C)C=C(C#N)C(=O)C(C)(C)[C@@H]5CC[C@]43C)[C@@H]2C1` [TX64065], for which the IC50 worked out at 0.6 nM.
Next, `CC1(C)CC[C@]2(CCC(=O)OCc3ccccc3)CC[C@]3(C)[C@H](C(=O)C=C4[C@@]5(C)C=C(C#N)C(=O)C(C)(C)[C@@H]5CC[C@]43C)[C@@H]2C1` [TX64066]: 20 nM; `CC1(C)CC[C@]2(CCC(=O)OC(C)(C)C)CC[C@]3(C)[C@H](C(=O)C=C4[C@@]5(C)C=C(C#N)C(=O)C(C)(C)[C@@H]5CC[C@]43C)[C@@H]2C1` [TX64067]: 14 nM; `CC1(C)CC[C@]2(CCC(=O)Nc3ccccn3)CC[C@]3(C)[C@H](C(=O)C=C4[C@@]5(C)C=C(C#N)C(=O)C(C)(C)[C@@H]5CC[C@]43C)[C@@H]2C1` [TX64068]: 1.1 nM.
The figure for `CC1(C)CC[C@]2(CCC(N)=O)CC[C@]3(C)[C@H](C(=O)C=C4[C@@]5(C)C=C(C#N)C(=O)C(C)(C)[C@@H]5CC[C@]43C)[C@@H]2C1` [TX64074] is 0.3 nM.
